Test results as given in patent US5298490A, “Tetra and penta-peptides useful in regulating the immune system” (Immunobiology Research Institute, Inc., priority 1990, dated 1994).
Square brackets hold non-standard residues; d marks the D form. Ends that are not written are not given here. Peptide text beside a SMILES is read from it. Aib = CC(C)(N)C(=O)O

How the values were obtained:
MOLT-4 cells [1] = assay: Cyclic GMP assay in MOLT-4 cells; assay type: cell-based, human; conditions: for activity in cGMP dose-response curves (FIG. 1): evaluated from 1 to 1000 μgs/ml in MOLT-4 cells
Source text: This assay measures the ability of a peptide of this invention to bind to the cell membrane receptor of the intact MOLT-4 cell and selectively stimulate production of cyclic GMP, as does human thysplenin and human thymopentin.
The MOLT-4 cell line was obtained from the American Type Culture Collection of Rockville, Md. MOLT-4 cells were freshly seeded and grown for 3 days with harvesting as described in T. Audhya et al, Arch. Biochem Biophys., 234: 167-177 (1984). The cells were washed 3 times in PBS and resuspended in RPMI 1640 at a concentration of 1.0×10^7 cells/ml and were allowed to equilibrate at 37° C. for 30 minutes before the addition of the test tetrapeptides and pentapeptides (25 ul) and control peptides. The incubation was allowed to proceed in a shaking water bath for 4-5 minutes and was then terminated by addition of 1 ml ice-cold TCA (10 percent).
The cells in TCA were homogenized and sonicated to release cyclic nucleotide. The suspension was centrifuged at 3000×g for 20 minutes at 4° C. The resulting precipitate was dissolved in 0.1N NaOH to determine the protein content. TCA was removed from the supernatant fraction by extracting 4 times with 5 ml of water-saturated diethyl ether. After the final extraction, the remaining traces of ether were removed by heating for 10 minutes in a 50° C. water bath. After lyophilization the sample was reconstituted in 50 mM acetate buffer (pH 6.2) for radioimmunoassay of cyclic GMP.
A threshold activity was determined for each peptide tested. This is defined as the lowest concentration of the test peptide which induced an intracellular level of cyclic GMP greater than two standard deviations above the control. The controls had intracellular cyclic GMP values of less than 0.5 picomoles/ml (mean±standard deviation). Test results were considered positive if the level of cyclic GMP was greater than 2 times (2 standard deviations) that determined for the parallel negative control.

[2] = Enzymatic stability in human serum; assay type: in vitro ADME; conditions: 37° C., HPLC
Source text: Thymopentin was 50% degraded at about 20 seconds.

[3] = Enzymatic stability in rat intestinal juice; conditions: 37° C., HPLC
Experimental: To illustrate the stability of a peptide of the present invention against degradation by intestinal and serum enzymes, an exemplary peptide Acetyl-Arg-Pro-Asp-Val-NH2 was incubated at 37° C. in rat intestinal juice and human serum for up to 120 minutes. Similarly treated for comparison were the tetrapeptide Arg-Lys-Asp-Val and thymopentin.

BP8 murine tumor cells = assay: BP8 tumor inhibition assay; assay type: in vivo, C3H mice; conditions: 30 ng or 30 μg subcutaneously once per week, vs glycine-raffinose vehicle
Experimental: An assay is performed using normal healthy C3H laboratory mice. The mice, in groups of 12 to 20, are injected subcutaneously with either 30 ng or 30 μg of a peptide of the present invention once per week. This peptide (acetyl-Arg-Pro-Val-Ala-NH2) called splenoralin was administered in citrate buffer containing 1% glycine and 2% D-raffinose pentahydrate, as described in pending United States patent application Ser. No. 336,236, incorporated herein by reference. A control group of mice were injected similarly with 30 μg of the glycine-raffinose vehicle without the peptide.
Four weeks after the initiation of these weekly injections, each mouse was inoculated intradermally with 5×10^6 BP8 murine tumor cells. BP8 is a conventional benzpyrene induced murine tumor. Once every week thereafter, each mouse is injected with the same amount of either the peptide formulation or the vehicle alone.
FIG. 3 indicates the percent of mice in each group which are negative for the presence of BP8 tumors in the days after the inoculation of tumor cells. FIG. 4 indicates for the same experiment the maximum size of tumors in those mice that did develop tumors.

[4] = tested on: non-obese diabetic (NOD) mice; assay: Diabetic mice assay; assay type: in vivo; conditions: 1 mg/kg body weight one time a week from weaning, vs vehicle
Source text: A strain of non-obese diabetic (NOD) laboratory mice maintained in Hopital Necker, Paris, France, have been bred in which the females spontaneously develop autoimmune disease of the pancreas. In the normal course of this disease in mice, the pancreatic cells are destroyed, resulting in loss of insulin production and diabetes mellitus. This mouse strain thus is a close model of Type I onset juvenile diabetes, which is normally treated with insulin replacement, but which can be typically slowed by immunosuppressive drugs, e.g., cyclosporin.
In this assay, groups of 12 to 20 NOD female mice are injected with 1 mg/kg body weight of a peptide of the present invention one time a week at weaning. This peptide (acetyl-Arg-Pro-Val-Ala-NH2) called splenoralin was administered the above-described formulation containing glycine and raffinose. A control group of mice were injected similarly with 1 mg of the glycine-raffinose vehicle without the peptide one time a week.

[5] = Kisfaludy et al 1983; cited from earlier work
MOLT-4 cells [6] = conditions: cited from earlier work
CEM cells = conditions: cited from earlier work
[7] = Table I, peptide concentration 1 μg/ml
[8] = Table I, peptide concentration 10 μg/ml
[9] = Table I, peptide concentration 100 μg/ml
[10] = Table I, peptide concentration 1000 μg/ml
[11] = Table II, peptide concentration 1 μg/ml
[12] = Table II, peptide concentration 10 μg/ml
[13] = Table II, peptide concentration 100 μg/ml

Compound	cGMP Concentration (MOLT-4 cells [1]; [7]) [picograms/ml]	cGMP Concentration (MOLT-4 cells [1]; [8]) [picograms/ml]	cGMP Concentration (MOLT-4 cells [1]; [9]) [picograms/ml]	cGMP Concentration (MOLT-4 cells [1]; [10]) [picograms/ml]	also measured
CC(=O)N[C@@H](CCCNC(=N)N)C(=O)NC(C)(C)C(=O)N[C@@H](C)C(=O)N[C@H](C(N)=O)C(C)C [Acetyl-Arg--Aib--Ala--Val--NH2, Acetyl-Arg-Aib-Ala-Val-NH2] (Ac-R[Aib]AV-NH2)	18.78	30.45	36.17	39.48	–
CC(=O)N[C@@H](CCCNC(=N)N)C(=O)NC(C)(C)C(=O)N[C@@H](CCC(=O)O)C(=O)N[C@H](C(N)=O)C(C)C [Acetyl-Arg--Aib--Glu--Val--NH2, Acetyl-Arg-Aib-Glu-Val-NH2] (Ac-R[Aib]EV-NH2)	3.7	11.0	17.7	24.9	–
CC(=O)N[C@@H](CCCNC(=N)N)C(=O)N1CCC[C@H]1C(=O)N[C@@H](C)C(=O)N[C@H](C(N)=O)C(C)C [Acetyl-Arg--Pro--Ala--Val--NH2, Acetyl-Arg-Pro-Ala-Val-NH2] (Ac-RPAV-NH2)	7.1	14.6	19.1	24.5	activity in cGMP dose-response curves (FIG. 1) (MOLT-4 cells [1]): active
CC(=O)N[C@@H](CCCNC(=N)N)C(=O)N1CCC[C@H]1C(=O)N[C@@H](CC(=O)O)C(=O)N[C@H](C(N)=O)C(C)C [Acetyl-Arg--Pro--Asp--Val--NH2, Acetyl-Arg-Pro-Asp-Val-NH2] (Ac-RPDV-NH2)	4.55	8.99	19.62	24.09	time remaining substantially undegraded [2]: at least 120 seconds; time remaining substantially undegraded ([3]; rat intestinal juice): at least 120 seconds
CC(=O)N[C@@H](CCCNC(=N)N)C(=O)N1CCC[C@H]1C(=O)N[C@@H](CCC(N)=O)C(=O)N[C@H](C(N)=O)C(C)C [Acetyl-Arg--Pro--Gln--Val--NH2] (Ac-RPQV-NH2)	18.75	29.68	34.98	40.23	–
CC(=O)N[C@@H](CCCNC(=N)N)C(=O)N1CCC[C@H]1C(=O)N[C@@H](CCC(=O)O)C(=O)N[C@H](C(N)=O)C(C)C [Acetyl-Arg--Pro--Glu--Val--NH2, Acetyl-Arg-Pro-Glu-Val-NH2] (Ac-RPEV-NH2)	4.7	9.41	16.76	25.00	–
CC(=O)N[C@@H](CCCNC(=N)N)C(=O)N1CCC[C@H]1C(=O)N[C@H](C(=O)N[C@@H](C)C(N)=O)C(C)C [Acetyl-Arg--Pro--Val--Ala--NH2, Acetyl-Arg-Pro-Val-Ala-NH2] (Ac-RPVA-NH2)	–	–	–	–	cGMP Concentration (MOLT-4 cells [1]; [11]): 7.77 picograms/ml; cGMP Concentration (MOLT-4 cells [1]; [12]): 17.39 picograms/ml; cGMP Concentration (MOLT-4 cells [1]; [13]): 24.47 picograms/ml; activity in cGMP dose-response curves (FIG. 2) (MOLT-4 cells [1]; evaluated from 1 to 100 μgs/ml in MOLT-4 cells): active; resistance to BP8 tumor growth (percent tumor negative, tumor size; FIG. 3, 4) (BP8 murine tumor cells): enabled the mice to resist the spread and growth of the tumor cells; incidence of diabetes / survival in NOD female mice (FIG. 6) [4]: restored the immune function and allowed survival of a greater number of animals than did the placebo
CC(=O)N[C@@H](CCCNC(=N)N)C(=O)N1CCC[C@H]1C(=O)N[C@@H](CC(=O)O)C(=O)N1CCC[C@H]1C(N)=O [Acetyl-Arg-Pro-Asp-Pro-NH2, reference compound] (Ac-RPDP-NH2)	–	–	–	–	activity in cGMP dose-response curves (FIG. 1) (MOLT-4 cells [1]): inactive
CC(C)[C@H](NC(=O)[C@H](CC(=O)O)NC(=O)[C@H](CCCCN)NC(=O)[C@@H](N)CCCNC(=N)N)C(=O)O [Arg-Lys-Asp-Val, reference compound] (H-RKDV-OH)	–	–	–	–	time after which totally digested ([3]; rat intestinal juice and human serum, matrix of this value not stated): 25 s
Acetyl-Arg-Pro-beta-Asp-Gly-NH2 [Acetyl-Arg--Pro-β-Asp--Gly--NH2]	20.56	31.83	36.66	34.95	–
Acetyl-Arg-Pro-β-D-Asp-Val-NH2 [Acetyl-Arg--Pro-β-D-Asp--Val--NH2]	6.6	14.3	20.5	25.0	activity in cGMP dose-response curves (FIG. 1) (MOLT-4 cells [1]): active
Arg-Ala-Asp-Val (RADV; printed: Arg-Ala-Asp-Val)	–	–	–	–	activity in in vitro E rosette test [5]: drastically reduced activity
Arg-Lys-Ala-Val (RKAV; printed: Arg-Lys-Ala-Val)	–	–	–	–	activity in in vitro E rosette test [5]: drastically reduced activity
Arg-Lys-Glu-Val (RKEV; printed: Arg-Lys-Glu-Val)	–	–	–	–	activity in in vitro E rosette test [5]: highly active
RKDVY [Arg--Lys--Asp--Val--Tyr, Arg-Lys-Asp-Val-Tyr, reference compound]	6.4	18.3	20.8	21.9	cGMP Concentration (MOLT-4 cells [1]; [11]): 3.55 picograms/ml; cGMP Concentration (MOLT-4 cells [1]; [12]): 13.56 picograms/ml; cGMP Concentration (MOLT-4 cells [1]; [13]): 18.70 picograms/ml; cGMP Concentration (MOLT-4 cells [1]; Table II, peptide concentration 1000 μg/ml): 24.85 picograms/ml; biological changes in MOLT-4 cells (MOLT-4 cells [6]): induce biological changes; biological changes in CEM cells (CEM cells): induce biological changes
thymopoietin: immunomodulatory protein isolated from bovine and human thymus (PEFLEDPSVLTKDKLKSELVANNVTLPAGEQRKDVYVQLYLQHLTARNR; Thymopoietin; UniProt P42166 2-50, looked up)	–	–	–	–	biological changes in MOLT-4 cells (MOLT-4 cells [6]): induce biological changes; biological changes in CEM cells (CEM cells): induce biological changes
